Measured values taken from the supplement of paper PMC4628005.

What was measured:
Settings in all cases: drug exposure time: 96 h
Erlotinib = compound: C#Cc1cccc(Nc2ncnc3cc(OCCOC)c(OCCOC)cc23)c1 [Erlotinib]
Method: (§1)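 Breast cancer cell lines were grown in RPMI 1640 with 10% FBS on collagen I-coated 96-well plates and treated for 96 h (from 24 h after seeding) with 12 dilutions per drug, in triplicate. Growth was read by sulforhodamine B total-protein staining (absorbance 570 nm) relative to diluent control, and IC50 was calculated. The top dose was 1e-5 M for most drugs; Bortezomib went to 2e-5 M and Sirolimus and 17-AAG to 2e-6 M[…].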

Docetaxel = compound: CC(=O)O[C@@]12CO[C@@H]1C[C@H](O)[C@@]1(C)C(=O)[C@H](O)C3=C(C)[C@@H](OC(=O)[C@H](O)[C@@H](NC(=O)OC(C)(C)C)c4ccccc4)C[C@@](O)([C@@H](OC(=O)c4ccccc4)[C@H]21)C3(C)C [Docetaxel]
Method: as §1

Paclitaxel = compound: CC(=O)O[C@H]1C(=O)[C@@]2(C)[C@H]([C@H](OC(=O)c3ccccc3)[C@]3(O)C[C@H](OC(=O)[C@H](O)[C@@H](NC(=O)c4ccccc4)c4ccccc4)C(C)=C1C3(C)C)[C@]1(OC(C)=O)CO[C@@H]1C[C@@H]2O [Paclitaxel]
Method: as §1

MI-219 = compound: CC(C)(C)C[C@H]1N[C@@H](C(=O)NCC[C@H](O)CO)[C@H](c2cccc(Cl)c2)[C@@]12C(=O)Nc1cc(Cl)c(F)cc12 [MI-219]
Method: as §1

Tamoxifen = compound: CC/C(=C(\c1ccccc1)c1ccc(OCCN(C)C)cc1)c1ccccc1 [Tamoxifen]
Method: as §1

Sunitinib = compound: CCN(CC)CCNC(=O)c1c(C)[nH]c(/C=C2\C(=O)Nc3ccc(F)cc32)c1C [Sunitinib]
Method: as §1

Methotrexate = compound: CN(Cc1cnc2nc(N)nc(N)c2n1)c1ccc(C(=O)N[C@@H](CCC(=O)O)C(=O)O)cc1 [Methotrexate]
Method: as §1

Sorafenib = compound: CNC(=O)c1cc(Oc2ccc(NC(=O)Nc3ccc(Cl)c(C(F)(F)F)c3)cc2)ccn1 [Sorafenib]
Method: as §1

Vandetanib = compound: COc1cc2/c(=N/c3ccc(Br)cc3F)nc[nH]c2cc1OCC1CCN(C)CC1 [Vandetanib]
Method: as §1

Gefitinib = compound: COc1cc2ncnc(Nc3ccc(F)c(Cl)c3)c2cc1OCCCN1CCOCC1 [Gefitinib]
Method: as §1

Nutlin-3 = compound: COc1ccc(C2=N[C@@H](c3ccc(Cl)cc3)[C@@H](c3ccc(Cl)cc3)N2C(=O)N2CCNC(=O)C2)c(OC(C)C)c1 [Nutlin-3]
Method: as §1

Doxorubicin = compound: COc1cccc2c1C(=O)c1c(O)c3c(c(O)c1C2=O)C[C@@](O)(C(=O)CO)C[C@@H]3O[C@H]1C[C@H](N)[C@H](O)[C@H](C)O1 [Doxorubicin]
Method: as §1

Lapatinib = compound: CS(=O)(=O)CCNCc1ccc(-c2ccc3ncnc(Nc4ccc(OCc5cccc(F)c5)c(Cl)c4)c3c2)o1 [Lapatinib]
Method: as §1

Panobinostat = compound: Cc1[nH]c2ccccc2c1CCNCc1ccc(/C=C/C(=O)NO)cc1 [Panobinostat]
Method: as §1

Brivanib = compound: Cc1cc2c(F)c(Oc3ncnn4cc(OC[C@@H](C)O)c(C)c34)ccc2[nH]1 [Brivanib]
Method: as §1

Dasatinib = compound: Cc1nc(Nc2ncc(C(=O)Nc3c(C)cccc3Cl)s2)cc(N2CCN(CCO)CC2)n1 [Dasatinib]
Method: as §1

Quisinostat = compound: Cn1cc(CNCC2CCN(c3ncc(C(=O)NO)cn3)CC2)c2ccccc21 [Quisinostat]
Method: as §1

Tipifarnib = compound: Cn1cncc1[C@@](N)(c1ccc(Cl)cc1)c1ccc2c(c1)c(-c1cccc(Cl)c1)cc(=O)n2C [Tipifarnib]
Method: as §1

Cisplatin = compound: N.N.[Cl][Pt][Cl] [Cisplatin]
Method: as §1

Azacitidine = compound: Nc1ncn([C@@H]2O[C@H](CO)[C@@H](O)[C@H]2O)c(=O)n1 [Azacitidine]
Method: as §1

Decitabine = compound: Nc1ncn([C@H]2C[C@H](O)[C@@H](CO)O2)c(=O)n1 [Decitabine]
Method: as §1

Belinostat = compound: O=C(/C=C/c1cccc(S(=O)(=O)Nc2ccccc2)c1)NO [Belinostat]
Method: as §1

Vorinostat = compound: O=C(CCCCCCC(=O)Nc1ccccc1)NO [Vorinostat]
Method: as §1

ARQ197 = compound: O=C1NC(=O)[C@@H](c2cn3c4c(cccc24)CCC3)[C@@H]1c1c[nH]c2ccccc12 [ARQ197]
Method: as §1

Mitoxantrone = compound: O=C1c2c(O)ccc(O)c2C(=O)c2c(NCCNCCO)ccc(NCCNCCO)c21 [Mitoxantrone]
Method: as §1

5-Fluorouracil = compound: O=c1[nH]cc(F)c(=O)[nH]1 [5-Fluorouracil]
Method: as §1

Serdemetan = compound: c1ccc2c(CCNc3ccc(Nc4ccncc4)cc3)c[nH]c2c1 [Serdemetan]
Method: as §1

17-AAG = compound: C=CCNC1=C2C[C@@H](C)C[C@H](OC)[C@H](O)[C@@H](C)/C=C(\C)[C@H](OC(N)=O)[C@@H](OC)/C=C\C=C(/C)C(=O)NC(=CC1=O)C2=O [17-AAG]
Method: (§2)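 Same SRB 96 h IC50 screen on breast cancer cell lines (RPMI 1640 + 10% FBS, collagen I-coated 96-well plates, triplicates, 12 dilutions), for drugs with a different dose range: Bortezomib up to 2e-5 M; Sirolimus and 17-AAG up to 2e-6 M. Sirolimus values at the 2e-6 M top dose are censored.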

Bortezomib = compound: CC(C)C[C@H](NC(=O)[C@H](Cc1ccccc1)NC(=O)c1cnccn1)B(O)O [Bortezomib]
Method: as §2

Sirolimus = compound: CO[C@H]1C[C@@H]2CC[C@@H](C)[C@@](O)(O2)C(=O)C(=O)N2CCCC[C@H]2C(=O)O[C@H]([C@H](C)C[C@@H]2CC[C@@H](O)[C@H](OC)C2)CC(=O)[C@H](C)/C=C(\C)[C@@H](O)[C@@H](OC)C(=O)[C@H](C)C[C@H](C)/C=C/C=C/C=C/1C [Sirolimus]
Method: as §2

Test System	IC50 (SRB growth assay) (Erlotinib)	IC50 (SRB growth assay) (Docetaxel)	IC50 (SRB growth assay) (Paclitaxel)	IC50 (SRB growth assay) (MI-219)	IC50 (SRB growth assay) (Tamoxifen)	IC50 (SRB growth assay) (Sunitinib)	IC50 (SRB growth assay) (Methotrexate)	IC50 (SRB growth assay) (Sorafenib)	IC50 (SRB growth assay) (Vandetanib)	IC50 (SRB growth assay) (Gefitinib)	IC50 (SRB growth assay) (Nutlin-3)	IC50 (SRB growth assay) (Doxorubicin)	IC50 (SRB growth assay) (Lapatinib)	IC50 (SRB growth assay) (Panobinostat)	IC50 (SRB growth assay) (Brivanib)	IC50 (SRB growth assay) (Dasatinib)	IC50 (SRB growth assay) (Quisinostat)	IC50 (SRB growth assay) (Tipifarnib)	IC50 (SRB growth assay) (Cisplatin)	IC50 (SRB growth assay) (Azacitidine)	IC50 (SRB growth assay) (Decitabine)	IC50 (SRB growth assay) (Belinostat)	IC50 (SRB growth assay) (Vorinostat)	IC50 (SRB growth assay) (ARQ197)	IC50 (SRB growth assay) (Mitoxantrone)	IC50 (SRB growth assay) (5-Fluorouracil)	IC50 (SRB growth assay) (Serdemetan)	IC50 (SRB growth assay) (17-AAG)	IC50 (SRB growth assay) (Bortezomib)	IC50 (SRB growth assay) (Sirolimus)
HCC 1500	617 nM	0.745 nM	3.44 nM	1070 nM	> 10000 nM	8230 nM	> 10000 nM	6090 nM	1280 nM	679 nM	2670 nM	40.3 nM	529 nM	12.8 nM	> 10000 nM	959 nM	9.34 nM	1050 nM	> 10000 nM	2330 nM	6210 nM	367 nM	987 nM	197 nM	30.6 nM	3930 nM	1960 nM	905 nM	5.55 nM	0.274 nM
HCC 1569	3240 nM	7.63 nM	66.2 nM	> 10000 nM	5680 nM	6490 nM	> 10000 nM	4350 nM	2070 nM	7430 nM	> 10000 nM	42.1 nM	857 nM	14.4 nM	> 10000 nM	381 nM	7.46 nM	938 nM	> 10000 nM	2620 nM	> 10000 nM	521 nM	1070 nM	619 nM	31.4 nM	8210 nM	1800 nM	90 nM	5.08 nM	0.355 nM
HCC 1806	327 nM	0.597 nM	1.97 nM	> 10000 nM	5990 nM	4990 nM	2.99 nM	5250 nM	580 nM	513 nM	> 10000 nM	20.8 nM	589 nM	15.8 nM	> 10000 nM	178 nM	8.95 nM	263 nM	> 10000 nM	> 10000 nM	1190 nM	216 nM	632 nM	501 nM	20.1 nM	5080 nM	826 nM	53.6 nM	5.96 nM	> 2000 nM
HCC 1954	361 nM	0.37 nM	1.37 nM	> 10000 nM	5420 nM	5340 nM	10.2 nM	5510 nM	894 nM	435 nM	> 10000 nM	11.1 nM	182 nM	9.53 nM	5340 nM	2290 nM	7.36 nM	449 nM	> 10000 nM	807 nM	1650 nM	142 nM	452 nM	205 nM	8.2 nM	2490 nM	1280 nM	26.4 nM	5.29 nM	0.0308 nM
Hs 578T	> 10000 nM	0.796 nM	1.88 nM	> 10000 nM	> 10000 nM	7020 nM	26 nM	6640 nM	5710 nM	> 10000 nM	> 10000 nM	57.7 nM	> 10000 nM	18.5 nM	> 10000 nM	1360 nM	12.7 nM	3930 nM	> 10000 nM	5800 nM	> 10000 nM	543 nM	999 nM	696 nM	16.8 nM	> 10000 nM	2550 nM	49.4 nM	5.74 nM	0.946 nM
MCF 7	> 10000 nM	1.12 nM	1.79 nM	815 nM	5690 nM	4470 nM	13.9 nM	5100 nM	> 10000 nM	> 10000 nM	2010 nM	8.94 nM	4000 nM	12 nM	> 10000 nM	> 10000 nM	5.75 nM	28.6 nM	> 10000 nM	3730 nM	472 nM	419 nM	783 nM	260 nM	14.8 nM	2210 nM	1690 nM	93.4 nM	8.35 nM	58.2 nM
MDA-MB 361	3870 nM	1.41 nM	4.81 nM	> 10000 nM	8840 nM	> 10000 nM	729 nM	5770 nM	4370 nM	4600 nM	> 10000 nM	67 nM	499 nM	8.08 nM	> 10000 nM	6020 nM	3.95 nM	2210 nM	> 10000 nM	> 10000 nM	> 10000 nM	469 nM	723 nM	417 nM	25.9 nM	> 10000 nM	3950 nM	41.4 nM	6.68 nM	0.259 nM
